Measurements published in patent EP1447414B1, “Antagonist peptides of carcinoembryonic antigen (CEA)” (THE GOVERNMENT OF THE UNITED STATES OF AMERICA, as …, priority 1997, dated 2007).
No end group written: not given here.

Test system: CEA CTL T-Vac8
Assay: CTL cytotoxicity screening of the CAP1 analog panel, 111In release from peptide-incubated C1R-A2 cells
Assay type: cell-based, human
Settings: peptide at 1, 0.1 and 0.01 µg/ml, E:T=1.45:1, isotope release after 4 hours

Row | Compound | activation of T-Vac8 cytotoxicity (lysis of peptide-incubated targets)
1 | YLSGSNLNL [CAP1-5S] | provided stimulation, albeit at reduced levels compared to CAP1 itself
2 | YLSGACLNL [CAP1-6C] | activated T-Vac8 cytotoxicity and seemed to be equal to or better than CAP1
3 | CC(C)C[C@H](NC(=O)[C@H](CC(N)=O)NC(=O)[C@H](CC(C)C)NC(=O)[C@H](CC(=O)O)NC(=O)[C@H](C)NC(=O)CNC(=O)[C@H](CO)NC(=O)[C@H](CC(C)C)NC(=O)[C@@H](N)Cc1ccc(O)cc1)C(=O)O [CAP1-6D] | activated T-Vac8 cytotoxicity and seemed to be equal to or better than CAP1
4 | YLSGINLNL [CAP1-5I] | provided stimulation, albeit at reduced levels compared to CAP1 itself
5 | CC[C@H](C)[C@H](NC(=O)[C@H](CC(N)=O)NC(=O)[C@H](C)NC(=O)CNC(=O)[C@H](CO)NC(=O)[C@H](CC(C)C)NC(=O)[C@@H](N)Cc1ccc(O)cc1)C(=O)N[C@@H](CC(N)=O)C(=O)N[C@@H](CC(C)C)C(=O)O [CAP1-7I] | appeared to be active
6 | YLSGFNLNL [CAP1-5F] | provided stimulation, albeit at reduced levels compared to CAP1 itself
